The values below come from PMC6060383, “Synthesis and pharmacological evaluation of novel isoquinoline N-sulphonylhydrazones designed as ROCK inhibitors” (Journal of Enzyme Inhibition and Medicinal Chemistry, 2018).

Entries after “also recorded” stand apart in the source; their conditions may differ.

For series [1], the target named is T1, ROCK1 human recombinant enzyme (Homo sapiens, UniProt Q13464).
T1 construct: purchased EUROFINS-CEREP France (contract assay, study numbers 100033685 and 100040481); host or cells: Sf9 insect cells
Put plainly: ROCK1 inhibition assay (Eurofins-Cerep, phosphorylation of Ulight-RRRSLLE substrate). Type of series: biochemical. As to the method: (§1) The analysis was performed using software developed at Cerep (Hill software) and GraphPad Prism® 5.0 (GraphPad Software, Inc., San Diego, CA) and validated through comparison with results generated using the SigmaPlot 4.0 software.
(§2) Prior to this assay, we evaluated the solubility of these compounds in water (buffer pH 7.4) to ensure that the inhibition percentages were not influenced by the precipitation of the compounds under test conditions.

Series [2] deals with T2, ROCK2 human recombinant enzyme (Homo sapiens, UniProt O75116).
T2 construct: purchased EUROFINS-CEREP France (contract assay, study numbers 100033685 and 100040481); host or cells: Sf21 insect cells
Put plainly: ROCK2 inhibition assay (Eurofins-Cerep, phosphorylation of Ulight-RRRSLLE substrate). Type of series: biochemical. As to the method:
as §1, §2

In series [3] the test system is MDA-MB 231 cells. Put plainly: Cell-based scratch assay (cell migration). Also noted: species or system human. Particulars: 10 or 30 μM, 24 h. As to the method:
The human mammary gland/breast epithelial cell line MDA-MB 231 was obtained from the American Type Culture Collection (ATCC® HTB-26™) and this use was approved by the Ethics Committee for Animal Care and Use in Scientific Research from the Federal University of Rio de Janeiro. Cells were routinely grown in RPMI medium containing 10% foetal bovine serum (FBS), 1% L-glutamine and 1% penicillin-streptomycin, in a humidified 5% CO2 atmosphere at 37 °C. Cells were cultured up to 70–100% confluence and then some cultures were treated with the compounds at different concentrations for 24 or 48 h. All cell culture reagents were purchased from Invitrogen (São Paulo, Brazil).
Cells were cultured in 24-well culture plates for 24 h up to 90–100% confluence. Scratched wound lines were created with the help of a 200 μl micropipette tip. […] Images were acquired with an Olympus DP71 digital camera (Olympus, Japan) and the wound area was quantified using Fiji software (based on ImageJ, http://imageJ.nih.gov/ij/) from three different experiments.
The functions of Rho-kinase include the regulation of cellular contraction, motility, morphology, polarity, division, and gene expression. Therefore, we performed a cell-based scratch assay followed by the quantification of the wounded area to analyse whether compounds 5b (LASSBio-2020) and 11 (LASSBio-2065) altered cell migration. […]

Series [4] is described as follows: Chemical stability study (pH 2.0 and pH 7.4 buffers). Particulars: 37 °C. The series is classed as physicochemical. As to the method: Two microliters ([…]) of a concentrated solution of the compound under examination (40 mM stock solution solubilized in DMSO) and 248 μL of acid (0.2 M potassium chloride and 0.2 M HCl; pH 2.0) or neutral (phosphate dibasic, pH 7.4) buffer were added to a 2 ml Eppendorf microtube. After vortexing, the mixture was placed in a water bath at 37 °C under vigorous stirring for 0, 30, 60, 120, and 240 min. After each reaction, 248 μL of basic buffer (phosphate buffer, pH 8.4) was added to neutralize the pH of the medium in the experiments using acidic buffer. The compound was extracted using 1 ml of acetonitrile followed by vigorous vortexing and freezing of the aqueous phase (−10 °C). The organic phase was separated, filtered, and analysed using an HPLC-PDA (acetonitrile/water […], 0.05% of TFA).
Due to the possible chemical instability of the imine functional group present in the N-sulphonylhydrazone framework, the stability profiles of compounds 5b (LASSBio-2020) and 11 (LASSBio-2065) were determined. The study was conducted under two conditions, pH 2.0 and pH 7.4, to mimic the acidic stomach and the neutral plasma environments, respectively. The compounds were examined in the presence of acid (pH 2) and neutral (pH 7.4) buffers with stirring for 240 min at a controlled temperature (37 °C).

The mark [5] stands for this setting: screening concentration 3 μM, average of two experiments.

T2 sequence (O75116 1-543 limits assumed): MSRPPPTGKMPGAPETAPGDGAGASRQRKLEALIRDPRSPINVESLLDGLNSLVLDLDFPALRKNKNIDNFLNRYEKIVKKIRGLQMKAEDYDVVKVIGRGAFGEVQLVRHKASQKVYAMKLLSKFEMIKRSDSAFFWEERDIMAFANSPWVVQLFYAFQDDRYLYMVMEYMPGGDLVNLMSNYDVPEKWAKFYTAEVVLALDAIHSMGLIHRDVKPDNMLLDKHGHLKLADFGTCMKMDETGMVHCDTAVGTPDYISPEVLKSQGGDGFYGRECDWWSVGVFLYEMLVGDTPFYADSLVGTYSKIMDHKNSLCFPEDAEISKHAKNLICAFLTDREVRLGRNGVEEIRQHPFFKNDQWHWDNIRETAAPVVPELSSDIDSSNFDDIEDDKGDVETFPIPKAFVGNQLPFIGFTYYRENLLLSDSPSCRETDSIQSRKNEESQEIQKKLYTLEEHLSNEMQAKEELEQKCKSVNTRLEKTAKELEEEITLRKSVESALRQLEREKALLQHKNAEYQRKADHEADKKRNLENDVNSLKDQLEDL
T1 sequence (Q13464 whole entry): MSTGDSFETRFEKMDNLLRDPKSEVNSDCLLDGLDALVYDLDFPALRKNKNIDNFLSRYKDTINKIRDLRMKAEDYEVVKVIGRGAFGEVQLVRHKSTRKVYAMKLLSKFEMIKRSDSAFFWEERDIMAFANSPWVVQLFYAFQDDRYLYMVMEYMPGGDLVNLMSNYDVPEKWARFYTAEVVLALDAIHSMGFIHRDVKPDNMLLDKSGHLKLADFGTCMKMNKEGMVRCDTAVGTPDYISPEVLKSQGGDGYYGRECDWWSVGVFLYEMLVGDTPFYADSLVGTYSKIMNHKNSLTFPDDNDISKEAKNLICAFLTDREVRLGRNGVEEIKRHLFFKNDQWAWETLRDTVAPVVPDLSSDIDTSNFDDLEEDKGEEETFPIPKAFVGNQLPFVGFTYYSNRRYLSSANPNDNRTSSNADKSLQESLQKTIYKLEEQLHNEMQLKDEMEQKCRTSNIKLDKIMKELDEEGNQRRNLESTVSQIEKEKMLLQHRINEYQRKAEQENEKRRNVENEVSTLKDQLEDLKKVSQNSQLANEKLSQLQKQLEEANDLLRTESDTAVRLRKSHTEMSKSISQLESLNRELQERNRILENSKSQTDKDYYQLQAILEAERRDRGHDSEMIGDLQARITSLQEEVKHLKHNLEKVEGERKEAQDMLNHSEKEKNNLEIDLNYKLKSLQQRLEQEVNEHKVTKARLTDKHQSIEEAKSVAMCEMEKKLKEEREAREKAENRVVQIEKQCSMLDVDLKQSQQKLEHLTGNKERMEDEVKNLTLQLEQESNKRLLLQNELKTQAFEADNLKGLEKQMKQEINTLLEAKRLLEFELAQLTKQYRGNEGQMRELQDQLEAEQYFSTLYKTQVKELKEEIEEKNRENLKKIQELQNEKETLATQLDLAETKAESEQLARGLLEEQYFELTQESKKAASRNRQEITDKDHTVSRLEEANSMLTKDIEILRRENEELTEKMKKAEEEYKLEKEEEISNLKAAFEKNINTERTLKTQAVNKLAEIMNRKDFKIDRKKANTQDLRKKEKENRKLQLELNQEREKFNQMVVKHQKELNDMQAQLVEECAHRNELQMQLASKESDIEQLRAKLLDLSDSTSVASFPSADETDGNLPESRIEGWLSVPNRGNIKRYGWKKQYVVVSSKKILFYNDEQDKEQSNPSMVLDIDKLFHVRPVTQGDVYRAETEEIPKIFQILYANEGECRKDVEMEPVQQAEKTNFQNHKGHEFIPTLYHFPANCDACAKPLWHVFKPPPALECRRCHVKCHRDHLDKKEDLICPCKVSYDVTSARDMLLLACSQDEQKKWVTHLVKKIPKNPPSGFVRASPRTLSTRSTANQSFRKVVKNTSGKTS

As for `O=S(=O)(N/N=C/c1ccccc1)c1cccc2cnccc12` [Compound 5b, (E)-N′-benzylideneisoquinoline-5-sulphonohydrazide], the IC50 amounted to 13 µM in series [1] (human recombinant ROCK1, five-point assay, 1 to 50 µM, mean of two experiments) and 7.1 µM in series [2] (human recombinant ROCK2, five-point assay, 1 to 50 µM, mean of two experiments). The inhibition at 3 µM in series [1] (setting [5]) came out at 29%; in series [2] (setting [5]) it was 24.2%. In addition, the “effect on cell migration (result in words)” value in series [3] is “inhibited MDA-MB 231 cell migration; also recorded: effective at inhibiting cell migration”. Besides, in series [4] (pH 2, after 30 min of incubation), the “recovery percentage under acidic conditions” value is given as 64%. Besides, the “degradation in neutral medium” value in series [4] (pH 7.4, after 4 h) was “less than 20%”.
